Laboratory results published in patent US9446019B2, “Sparstolonin B based pharmaceutical agent for neuroblastoma treatment” (University of South Carolina, priority 2013, dated 2016).

Experiments:
[1] = tested on: caspase-3 in neuroblastoma cells; assay: Cleaved caspase-3 by immunofluorescence and Western blotting; type: cell-based, human
Protocol: For immunofluorescence staining, cells grown in Lab-TekII chamber slides (Fisher Scientific, Pittsburgh, Pa.) were treated with SsnB in complete culture medium. After treatments, cells were washed with 1×PBS, fixed with 4% paraformaldehyde/PBS for 20 min, and permeabilized with 0.2% Triton X-100/PBS for 10 min at room temperature. Cells were washed with 1×PBS for 3 times and blocked with 5% immunoglobulin (IgG) free-bovine serum albumin (BSA; Jackson ImmunoResearch Laboratories, West Grove, Pa.) in 1×PBS for overnight at 4° C. Cells were incubated with antibody raised against active form of caspase-3 (Cell Signaling Technology, Danvers, Mass.) diluted in 2.5% BSA/PBS for overnight at 4° C. Primary antibodies were detected with secondary antibodies conjugated with fluorescein isothiocyanate (FITC; Santa Cruz Biotechnology, Dallas, Tex.) for 2 h at room temperature. After washing with 1×PBS, cells were mounted with antifade Vectashield mounting media (Vector Laboratories, Burlingame, Calif.), and signals were visualized under Nikon-E600 fluorescence microscope. Nuclei were counterstained with 4′,6-diamidino-2-phenylindole (DAPI; Sigma).
After treatment with SsnB, cells were collected, washed with 1×PBS, and lysed with 1× cell lysis buffer (Cell Signaling Technology, Danvers, Mass.) containing phenylmethylsulfonyl fluoride (PMSF) and protease inhibitors (aprotinin and leupeptin) for 30 min on ice, and centrifuged at 12000×rpm for 10 min at 4° C. Supernatant (total cell protein) was collected and stored at −80° C. Protein concentration was determined by bicinchoninic acid method using BCA protein assay kit (Pierce/ThermoScientific, Waltham, Mass.). Equal amount of proteins were diluted with 5× Laemmli samples loading buffer and boiled for five minutes. The proteins were subjected to sodium dodecyl sulfate (SDS)-polyacrylamide gel electrophoresis and analyzed by Western blots. Briefly, after electrophoresis, proteins were transferred on polyvinylidene difluoride (PVDF) membrane at 100 volt for 3 h in cold room. Membrane was blocked with 5% non-fat dry milk/TBST (20 mM Tris-Cl, pH 7.4; 150 mM NaCl with 0.1% Tween-20) for 4 h at room temperature followed by incubation in primary antibodies diluted in 2.5% non-fat dry milk/TBST for overnight at 4° C. After washing with TBST, membrane was incubated with secondary antibodies (horseradish peroxidase-conjugated goat anti-rabbit or goat anti-mouse IgG; Santa Cruz Biotechnology, Dallas, Tex.) diluted in 2.5% non-fat dry milk/TBST for 3 h at room temperature. Signals were detected by chemiluminiscence detection kit (Pierce/Thermo Fisher Scientific, Rockford, Ill.). Primary antibodies used were cleaved caspase-3 and β-actin (Cell Signaling Technology), N-myc and p53 (Santa Cruz Biotechnology).
At cellular level, mitochondria- or receptor (Fas/FasL)-mediated pathways activate caspase signaling cascade which in turn induces DNA damage and initiates programmed cell death (apoptosis). To determine whether SsnB-induced cell death is mediated by caspase activation, Western blotting as well as immunofluorescence assay were performed to detect the active form of caspase-3 in neuroblastoma cells treated with SsnB for 2 days (SH-SY5Y and IMR-32 cells), 3 days (NGP cells) or 4 days (SKNF-1 and SK-N-BE(2) cells). The number of cleaved caspase-3 positive cells were quantitated by ImageJ programme and plotted. […]

[2] = tested on: SH-SY5Y and SK-N-BE(2) cells; assay: Hanging-drop assay for spheroid formation; type: cell-based, human; conditions: day 12
Protocol: 3-D in vitro hanging drop assay was carried out to detect the SsnB effect in neuroblastoma spheroid formation. Neuroblastoma cells were prepared as single cell suspension in complete culture medium (DMEM+10% FBS) without or with SsnB (1 and 10 μM). Twenty microliter drops of each prepared cell suspension containing 20,000 cells/drop were pipetted into the inner side of the lid of a 60 mm diameter tissue culture dish. The lid was gently inverted and placed on top of the culture dish filled with 5 ml of sterile 1×PBS to humidify the culture chamber. The drops were incubated under tissue culture conditions (at 37° C. and 5% CO2) allowing the cells to form aggregate at the base of the droplet. The cells in each droplet were photographed using Olympus SZX2 stereo microscope (Olympus America Inc., Center Valley, Pa.).
As SsnB inhibited the formation of neuroblastoma colony in anchorage-independent agarose gel assay, the ability of SsnB to inhibit the initiation of neuroblastoma tumors was tested in a hanging drop assay method. In the hanging drop assay the cells under the force of gravity and surface tension start accumulating at the bottom of the hanging drop and join together to form a spheroid. […]

## O=c1occ2c3c(ccc(O)c13)Oc1ccc(O)cc1-2 [SsnB, 8,5′-dihydroxy-4-phenyl-5,2′-oxidoisocoumarin]
[1]; SsnB 1 μM, nonsignificant vs control
  cleaved caspase-3 level, Western blot: almost undetectable levels
[1]; SsnB 10 μM
  cleaved caspase-3 protein bands (17 and 19 kDa), Western blot: present
[1]; SsnB 10 μM vs DMSO or SsnB 1 μM
  cleaved caspase-3 positive cells (immunofluorescence): significantly increased
[1]; SsnB 10 μM, SH-SY5Y cells, time points 6, 12, 24, 48 h
  exposure time at which caspase-3 cleavage is seen: ≤ 6 h
[2]; SsnB 1 μM
  spheroid formation: compact cell clusters were formed
[2]; SsnB 10 μM
  spheroid formation: unable to aggregate to form compact spheroids
